Assay results reported in ChEMBL document CHEMBL4004878, “Design, synthesis and structure-bactericidal activity relationships of novel 9-oxime ketolides and reductive epimers of acylides” (2017).
≈ marks a conversion by molar mass, not a printed value.

Columns and labels:
Assay type in all cases: functional
[1] = tested on: Streptococcus pyogenes; test: Ratio of MBC to MIC for Streptococcus pyogenes 01-968 expressing inducible ermA
[2] = tested on: Haemophilus influenzae; test: Bactericidal activity against azithromycin susceptible/ampicillin-resistant Haemophilus influenzae 11P307 incubated for 20 to 24 hrs followed by sub-culturing for 24 hrs in absence of compound
[3] = tested on: Haemophilus influenzae; test: Bacteriostatic activity against azithromycin-susceptible Haemophilus influenzae ATCC 49247 after 20 to 24 hrs by two-fold microbroth dilution method
[4] = tested on: Moraxella catarrhalis; test: Ratio of MBC to MIC against erythromycin-susceptible Moraxella catarrhalis 13L332
[5] = tested on: Staphylococcus aureus; test: Bacteriostatic activity against methicillin-resistant Staphylococcus aureus PU20 expressing constitutive ermC after 20 hrs by two-fold microbroth dilution method; details: PU20, 20 h
[6] = tested on: Streptococcus pneumoniae; test: Ratio of MBC to MIC for penicillin-susceptible Streptococcus pneumoniae PU09
[7] = tested on: Streptococcus pyogenes; test: Bacteriostatic activity against Streptococcus pyogenes 01-968 expressing inducible ermA after 20 to 24 hrs by two-fold microbroth dilution method
[8] = tested on: Staphylococcus aureus; test: Ratio of MBC to MIC against methicillin-resistant Staphylococcus aureus PU32 expressing inducible ermA
[9] = tested on: Moraxella catarrhalis; test: Bactericidal activity against erythromycin-susceptible Moraxella catarrhalis 13L332 incubated for 20 hrs followed by sub-culturing for 24 hrs in absence of compound
[10] = tested on: Staphylococcus aureus; test: Bacteriostatic activity against methicillin-resistant Staphylococcus aureus PU32 expressing inducible ermA after 20 hrs by two-fold microbroth dilution method; details: PU32, 20 h
[11] = tested on: Streptococcus pneumoniae; test: Bactericidal activity against […] Streptococcus pneumoniae ATCC 49619 incubated for 20 to 24 hrs followed by sub-culturing for 24 hrs in absence of compound
[12] = tested on: Staphylococcus aureus; test: Bactericidal activity against methicillin-resistant Staphylococcus aureus PU20 expressing constitutive ermC incubated for 20 hrs followed by sub-culturing for 24 hrs in absence of compound
[13] = tested on: Haemophilus influenzae; test: Bactericidal activity against azithromycin-susceptible Haemophilus influenzae ATCC 49247 incubated for 20 to 24 hrs followed by sub-culturing for 24 hrs in absence of compound
[14] = tested on: Streptococcus pyogenes; test: Bactericidal activity against Streptococcus pyogenes 01-968 expressing inducible ermA incubated for 20 to 24 hrs followed by sub-culturing for 24 hrs in absence of compound
[15] = tested on: Haemophilus influenzae; test: Ratio of MBC to MIC for azithromycin susceptible/ampicillin-resistant Haemophilus influenzae 11P307
[16] = tested on: Haemophilus influenzae; test: Bacteriostatic activity against azithromycin-susceptible/ampicillin-resistant Haemophilus influenzae 11P307 after 20 to 24 hrs by two-fold microbroth dilution method
[17] = tested on: Haemophilus influenzae; test: Ratio of MBC to MIC against azithromycin-susceptible Haemophilus influenzae ATCC 49247
[18] = tested on: Streptococcus pneumoniae; test: Bacteriostatic activity against […] Streptococcus pneumoniae ATCC 49619 after 20 to 24 hrs by two-fold microbroth dilution method
[19] = tested on: Moraxella catarrhalis; test: Bacteriostatic activity against erythromycin-susceptible Moraxella catarrhalis 13L332 after 20 hrs by two-fold microbroth dilution method; details: 13L332, 20 h
[20] = tested on: Staphylococcus aureus; test: Bactericidal activity against methicillin-resistant Staphylococcus aureus PU32 expressing inducible ermA incubated for 20 hrs followed by sub-culturing for 24 hrs in absence of compound
[21] = tested on: Streptococcus pneumoniae; test: Bactericidal activity against penicillin-susceptible Streptococcus pneumoniae PU09 incubated for 20 to 24 hrs followed by sub-culturing for 24 hrs in absence of compound
[22] = tested on: Streptococcus pneumoniae; test: Bacteriostatic activity against penicillin-susceptible Streptococcus pneumoniae PU09 after 20 to 24 hrs by two-fold microbroth dilution method
[23] = tested on: Moraxella catarrhalis; test: Bactericidal activity against erythromycin-susceptible Moraxella catarrhalis 11B366 incubated for 20 hrs followed by sub-culturing for 24 hrs in absence of compound
[24] = tested on: Streptococcus pyogenes; test: Ratio of MBC to MIC for Streptococcus pyogenes 12-207 expressing mef
[25] = tested on: Streptococcus pyogenes; test: Bactericidal activity against Streptococcus pyogenes 12-207 expressing mef incubated for 20 to 24 hrs followed by sub-culturing for 24 hrs in absence of compound
[26] = tested on: Streptococcus pyogenes; test: Bacteriostatic activity against Streptococcus pyogenes 12-207 expressing mef after 20 to 24 hrs by two-fold microbroth dilution method
[27] = tested on: Staphylococcus aureus; test: Ratio of MBC to MIC for methicillin-resistant Staphylococcus aureus PU20 expressing constitutive ermC
[28] = tested on: Streptococcus pneumoniae; test: Ratio of MBC to MIC for […] Streptococcus pneumoniae ATCC 49619
[29] = tested on: Moraxella catarrhalis; test: Ratio of MBC to MIC against erythromycin-susceptible Moraxella catarrhalis 11B366
[30] = tested on: Moraxella catarrhalis; test: Bacteriostatic activity against erythromycin-susceptible Moraxella catarrhalis 11B366 after 20 hrs by two-fold microbroth dilution method; details: 11B366, 20 h

Row | SMILES | Ratio [1] | MBC [2] [µg/mL] | MIC [3] [µg/mL] | Ratio [4] | MIC [5] [µg/mL] | Ratio [6] | MIC [7] [µg/mL] | Ratio [8] | MIC [10] [µg/mL] | MBC [11] [µg/mL] | MBC [12] [µg/mL] | MBC [13] [µg/mL] | MBC [14] [µg/mL] | Ratio [15] | MIC [16] [µg/mL] | Ratio [17] | MIC [18] [µg/mL] | MBC [20] [µg/mL] | MBC [21] [µg/mL] | MIC [22] [µg/mL] | other results
1 | CC[C@H]1OC(=O)[C@@](C)(F)C(=O)[C@H](C)[C@@H](O[C@@H]2O[C@H](C)C[C@H](N(C)C)[C@H]2O)[C@](C)(OC)C[C@@H](C)/C(=N\OC/C=C/c2cncc(C(N)=O)c2)[C@H](C)[C@H]2OC(=O)O[C@@]21C | >8 | 16 (≈ 19.8 µM) | 16 (≈ 19.8 µM) | >8 | > 256 | 2 | 0.062 (≈ 0.0768 µM) | 8 | 1 (≈ 1.24 µM) | 0.125 (≈ 0.155 µM) | > 256 | 32 (≈ 39.7 µM) | > 0.5 | 1 | 16 (≈ 19.8 µM) | 2 | 0.062 (≈ 0.0768 µM) | 8 (≈ 9.91 µM) | 0.5 (≈ 0.62 µM) | 0.25 (≈ 0.31 µM) | MBC [9]: > 0.5 µg/mL; MIC [19]: 0.062 µg/mL (≈ 0.0768 µM)
2 | CC[C@H]1OC(=O)[C@H](C)C(=O)[C@H](C)[C@@H](O[C@@H]2O[C@H](C)C[C@H](N(C)C)[C@H]2O)[C@](C)(OC)C[C@@H](C)/C(=N\OC/C=C/c2cnc3ccccc3c2)[C@H](C)[C@H]2OC(=O)O[C@@]21C | >8 | 64 to 128 (≈ 80.4 to 161 µM) | 64 (≈ 80.4 µM) |  | 32 (≈ 40.2 µM) | 2 | 0.062 (≈ 0.0779 µM) | >8 | 1 (≈ 1.26 µM) | 0.031 (≈ 0.0389 µM) | 32 (≈ 40.2 µM) | > 256 | > 0.5 | >=4 - 8 | 8 to 32 (≈ 10.1 to 40.2 µM) | >4 | ≤ 0.008 | > 8 | 0.5 (≈ 0.628 µM) | 0.25 (≈ 0.314 µM) | MBC [23]: 2 µg/mL (≈ 2.51 µM); Ratio [24]: >8; MBC [25]: > 0.125 µg/mL; MIC [26]: 0.016 µg/mL (≈ 0.0201 µM); Ratio [27]: 1; Ratio [28]: >=4; Ratio [29]: 1; MIC [30]: 2 µg/mL (≈ 2.51 µM)
3 | CC[C@H]1OC(=O)[C@H](C)[C@@H](O[C@H]2C[C@@](C)(OC)[C@@H](O)[C@H](C)O2)[C@H](C)[C@@H](O[C@@H]2O[C@H](C)C[C@H](N(C)C)[C@H]2O)[C@](C)(OC)C[C@@H](C)C(=O)[C@H](C)[C@@H](O)[C@]1(C)O [CLARITHROMYCIN] | >8 | 8 to 16 (≈ 10.7 to 21.4 µM) | 16 (≈ 21.4 µM) | 4 | > 256 | 2 | 1 (≈ 1.34 µM) | >2 - 8 | 8 to 32 (≈ 10.7 to 42.8 µM) | 0.062 to 0.125 (≈ 0.0829 to 0.167 µM) | > 256 | 32 (≈ 42.8 µM) | > 8 | 2 - 8 | 1 to 8 (≈ 1.34 to 10.7 µM) | 2 | 0.031 to 0.062 (≈ 0.0414 to 0.0829 µM) | 16 to 256 (≈ 21.4 to 342 µM) | 8 (≈ 10.7 µM) | 4 (≈ 5.35 µM) | MBC [23]: 0.25 µg/mL (≈ 0.334 µM); MBC [9]: 0.125 µg/mL (≈ 0.167 µM); Ratio [24]: 2; MBC [25]: 32 µg/mL (≈ 42.8 µM); MIC [26]: 16 µg/mL (≈ 21.4 µM); MIC [19]: 0.031 µg/mL (≈ 0.0414 µM); Ratio [29]: 2; MIC [30]: 0.125 µg/mL (≈ 0.167 µM)
4 | CC[C@H]1OC(=O)[C@H](C)C(=O)[C@H](C)[C@@H](O[C@@H]2O[C@H](C)C[C@H](N(C)C)[C@H]2O)[C@](C)(OC)C[C@@H](C)C(=O)[C@H](C)[C@H]2N(CCCCn3cnc(-c4cccnc4)c3)C(=O)O[C@]12C [TELITHROMYCIN] | 2 - 8 | 4 (≈ 4.93 µM) | 8 (≈ 9.85 µM) | 4 | > 256 | 2 - 4 | 0.062 (≈ 0.0764 µM) | >8 | 0.125 to 0.25 (≈ 0.154 to 0.308 µM) | 0.031 (≈ 0.0382 µM) | > 256 | 8 (≈ 9.85 µM) | 0.125 to 0.5 (≈ 0.154 to 0.616 µM) | 1 - 4 | 1 to 4 (≈ 1.23 to 4.93 µM) | 1 | 0.016 to 0.031 (≈ 0.0197 to 0.0382 µM) | 1 to 2 (≈ 1.23 to 2.46 µM) | 0.5 to 1 (≈ 0.616 to 1.23 µM) | 0.25 (≈ 0.308 µM) | MBC [23]: 0.25 µg/mL (≈ 0.308 µM); MBC [9]: 0.5 µg/mL (≈ 0.616 µM); Ratio [24]: 2; MBC [25]: 1 µg/mL (≈ 1.23 µM); MIC [26]: 0.5 µg/mL (≈ 0.616 µM); Ratio [28]: 1 - 2; MIC [19]: 0.125 µg/mL (≈ 0.154 µM); Ratio [29]: 1; MIC [30]: 0.25 µg/mL (≈ 0.308 µM)
5 | CC[C@H]1OC(=O)[C@@](C)(F)C(=O)[C@H](C)[C@@H](O[C@@H]2O[C@H](C)C[C@H](N(C)C)[C@H]2O)[C@](C)(OC)C[C@@H](C)/C(=N\OC/C=C/c2cncc(N)c2)[C@H](C)[C@H]2OC(=O)O[C@@]21C | >8 | 32 (≈ 41.1 µM) | 32 (≈ 41.1 µM) | >8 | > 256 | 2 | 0.062 (≈ 0.0796 µM) | >8 | 0.5 (≈ 0.642 µM) | 0.25 (≈ 0.321 µM) | > 256 | 32 (≈ 41.1 µM) | > 0.5 | 2 | 16 (≈ 20.5 µM) | 1 | 0.125 (≈ 0.16 µM) | > 4 | 1 (≈ 1.28 µM) | 0.5 (≈ 0.642 µM) | MBC [9]: > 0.25 µg/mL; MIC [19]: 0.031 µg/mL (≈ 0.0398 µM)
6 | CC[C@H]1OC(=O)[C@H](C)C(=O)[C@H](C)[C@@H](O[C@@H]2O[C@H](C)C[C@H](N(C)C)[C@H]2O)[C@](C)(OC)C[C@@H](C)/C(=N\OCC#Cc2cncc3ccccc23)[C@H](C)[C@H]2OC(=O)O[C@@]21C | >8 | > 128 |  |  | 32 (≈ 40.3 µM) | 2 | 0.25 (≈ 0.315 µM) | >8 | 1 (≈ 1.26 µM) | 0.031 (≈ 0.039 µM) | 64 (≈ 80.6 µM) |  | > 2 | >8 | 16 (≈ 20.2 µM) |  | ≤ 0.008 | > 8 | 0.5 (≈ 0.63 µM) | 0.25 (≈ 0.315 µM) | MBC [23]: 4 µg/mL (≈ 5.04 µM); Ratio [24]: >8; MBC [25]: > 0.125 µg/mL; MIC [26]: 0.016 µg/mL (≈ 0.0202 µM); Ratio [27]: 2; Ratio [28]: >=4; Ratio [29]: 1; MIC [30]: 4 µg/mL (≈ 5.04 µM)
